Target: T1, CERT (Homo sapiens, UniProt Q9Y5P4)
T1 construct: made in house; host or cells: E. coli BL21 (DE3), pET-28a(+)
T1 sequence (Q9Y5P4 1-598 isoform Q9Y5P4-2): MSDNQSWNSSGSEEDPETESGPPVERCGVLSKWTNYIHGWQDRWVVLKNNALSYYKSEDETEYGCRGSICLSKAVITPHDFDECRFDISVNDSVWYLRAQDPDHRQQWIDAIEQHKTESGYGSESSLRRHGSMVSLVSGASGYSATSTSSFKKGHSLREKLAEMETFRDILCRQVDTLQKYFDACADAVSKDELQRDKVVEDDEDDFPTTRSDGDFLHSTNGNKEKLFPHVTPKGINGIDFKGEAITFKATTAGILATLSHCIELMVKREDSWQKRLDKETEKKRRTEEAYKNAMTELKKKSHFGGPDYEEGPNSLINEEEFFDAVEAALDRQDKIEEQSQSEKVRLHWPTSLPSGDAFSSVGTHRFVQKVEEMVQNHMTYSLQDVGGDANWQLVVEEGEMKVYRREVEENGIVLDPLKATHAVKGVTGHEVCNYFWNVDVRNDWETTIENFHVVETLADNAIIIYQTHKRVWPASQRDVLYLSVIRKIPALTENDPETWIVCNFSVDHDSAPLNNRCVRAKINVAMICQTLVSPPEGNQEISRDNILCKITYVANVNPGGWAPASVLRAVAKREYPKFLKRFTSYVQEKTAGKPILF
Assay: NR-ceramide fluorescence competition assay
Format: binding
Conditions: 1 μM Nile red ceramide
Source text: Having the identified hits from CERT-transfer assay, we were interested in further understanding the relationship between the CERT-transfer inhibitory activity and CERT-binding affinity. With this goal in mind, we have developed a homogenous competitive assay based on the binding of fluorescently-labeled ceramide to CERT-protein (Fig S6). It’s well known that Nile Red is […]
than in hydrophilic one. Based on this knowledge, we have designed a fluorescently-labeled probe in which the Nile Red-tag was incorporated into the ceramide fatty acid moiety. The NR-ceramide […]
excellent signal-to-noise ratio (28-fold, Fig S7.A). Equilibration takes ~1h of incubation at 30°C.
Furthermore, this assay is a simple mix-and read format and uses only low amounts of fluorophore (1µM) and CERT-protein (12.5µg/assay).
The assay was performed in non-binding black-bottom 96-well microplate (Greiner Bio-One). To each well was added 1µL HPA12 (final concentration 2.5µM) or DMSO, followed by 98 µL of the CERT aliquot (12.5µg/well). After the mixture was incubated for 40 min at 30°C, 1µL NR-ceramide (final concentration 1µM) was added. Controls were triplicates of 10mM Tris.HCl buffer (pH 7.4, 250 mM sucrose) with 2µL DMSO, CERT aliquot (12.5µg/well) with 2µL DMSO, and 1µL NR-ceramide (final concentration 1µM) in 10mM Tris.HCl buffer (pH 7.4, 250 mM sucrose) with 1µL DMSO. The plate was then sealed with transparent Thermowell seal tape and placed in the microplate reader (LABTECH) at 30°C with shaking. The fluorescence was measured from the top over 80min (number of cycles 35, delay 70 sec) with excitation filter 540 nm and emission filter 640 nm. The competitive CERT-binding activity was calculated using the formula: Ix = I(À2-Y)/I0(À1-X), where À1 is the average of the florescence of the control of NR-ceramide in Tris.HCl buffer, X is the average of the fluorescence of the buffer alone, À2 is the fluorescence average of the assay mixture, Y is the fluorescence average of the CERT aliquot with inhibitor/DMSO (Fig […]
It is however lower than the differentiation in the transfer assay (Fig S8B).
3.2 High throughput screening for CERT-activity and Data analysis
In order to validate the performance of developed assay in high-throughput screening format, the hits from ‘confirmed-hit group’ (45 hits) were screened for their competitive CERT-binding activity. The assay was performed as mentioned in the previous sub-section 3.1. Briefly, 1µL tested compound (final concentration 1µM, 2.5µM, 5µM, 10µM) or DMSO for control, and 98 µL CERT stock solution were sequentially added into a non-binding 96-well microplate. The plate was sealed and incubated at 30°C for 40 min, before 1µL NR-ceramide (final concentration 1µM) was added.
Controls per plate were triplicates of 10mM Tris.HCl buffer (pH 7.4, 250 mM sucrose) with 2µL DMSO, CERT aliquot (12.5µg/well) with 2µL DMSO, 1µL NR-ceramide (final concentration 1µM) in 10mM Tris.HCl buffer (pH 7.4, 250 mM sucrose), and HPA12 as a reference inhibitor (final concentration of 1µM, and 2.5µM, 5µM). The plate was sealed with transparent Thermowell seal tape and the assay was allowed to proceed as described above using excitation filter 540 nm and emission filter 640 nm. The competitive CERT-binding activity was calculated using the formula: Ix = I(À2-Y)/I0(À1-X), where À1 is the average of the florescence of the control 1µL NR-ceramide in Tris.HCl buffer, X is the average of the fluorescence of the buffer alone, À2 is the average of the fluorescence of assay mixture treated with tested compound or DMSO, Y is the average of the fluorescence of CERT aliquot with inhibitor/DMSO.

activity in the NR ceramide competition assay: much less pronounced
Structure (SMILES): CCCCCCCCCCCC(=O)NC(CO)CC(O)c1ccccc1 (single isomer, unassigned) [R,R diastereomer of HPA‐12, N-(3Hydroxy-1-hydroxymethyl-3-phenylpropyl)-dodecamide]
